ChEMBL document CHEMBL2029209, “Structure-based design of 2,6,7-trisubstituted-7H-pyrrolo[2,3-d]pyrimidines as Aurora kinases inhibitors” (Bioorg Med Chem Lett, 2012)

Experiments:
Aurora kinase B = Aurora kinase B (Homo sapiens, UniProt Q96GD4); assay: Inhibition of aurora B kinase
[1] = target: Cyclin-dependent kinase 1 (Homo sapiens, UniProt P06493); assay: Inhibition of CDK1
HCT-116 [2] = assay: Induction of cell cycle arrest in human HCT116 cells assessed as minimum concentration required for G2/M versus G1 peak ratio over 2; assay type: functional
HCT-116 [3] = assay: Antiproliferative activity against human HCT116 cells; assay type: functional, cell-based
Aurora kinase A = target: T1, Aurora kinase A (Homo sapiens, UniProt O14965); assay: Inhibition of aurora A kinase
T1 sequence (O14965 whole entry): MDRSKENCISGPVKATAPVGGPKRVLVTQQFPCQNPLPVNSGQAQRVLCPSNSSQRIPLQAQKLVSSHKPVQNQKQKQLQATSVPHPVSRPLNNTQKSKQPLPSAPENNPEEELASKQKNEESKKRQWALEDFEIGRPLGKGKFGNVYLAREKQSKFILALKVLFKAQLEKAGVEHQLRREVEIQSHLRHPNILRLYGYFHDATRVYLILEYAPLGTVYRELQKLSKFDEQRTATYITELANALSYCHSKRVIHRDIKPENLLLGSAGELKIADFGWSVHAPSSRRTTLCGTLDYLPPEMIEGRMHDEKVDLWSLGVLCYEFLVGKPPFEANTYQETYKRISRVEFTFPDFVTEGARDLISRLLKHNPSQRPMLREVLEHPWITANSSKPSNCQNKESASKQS

Sequence of Aurora kinase B (Q96GD4 whole entry): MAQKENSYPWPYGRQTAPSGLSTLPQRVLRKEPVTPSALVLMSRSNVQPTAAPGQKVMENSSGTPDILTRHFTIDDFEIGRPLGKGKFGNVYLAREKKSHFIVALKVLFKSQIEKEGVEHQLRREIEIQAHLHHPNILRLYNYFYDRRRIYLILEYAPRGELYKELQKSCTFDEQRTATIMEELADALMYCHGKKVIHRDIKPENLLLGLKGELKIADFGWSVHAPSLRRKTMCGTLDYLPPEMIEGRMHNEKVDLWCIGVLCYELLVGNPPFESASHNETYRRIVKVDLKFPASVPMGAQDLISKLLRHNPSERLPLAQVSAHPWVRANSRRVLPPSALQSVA
Sequence of Cyclin-dependent kinase 1 (P06493 whole entry): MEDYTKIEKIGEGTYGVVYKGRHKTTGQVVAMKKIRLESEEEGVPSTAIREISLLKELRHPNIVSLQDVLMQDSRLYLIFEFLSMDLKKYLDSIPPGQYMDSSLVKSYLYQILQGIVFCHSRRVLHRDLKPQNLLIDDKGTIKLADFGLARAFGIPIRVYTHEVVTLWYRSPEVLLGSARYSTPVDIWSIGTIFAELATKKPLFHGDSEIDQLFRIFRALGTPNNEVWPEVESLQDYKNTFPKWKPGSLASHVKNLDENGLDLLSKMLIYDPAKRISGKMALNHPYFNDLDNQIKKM

IC50 (Aurora kinase B) [nM]	IC50 [1] [nM]	IC50 (HCT-116 [3]) [nM]	IC50 (Aurora kinase A) [nM]	SMILES	Activity (HCT-116 [2]) [µM]
11	500	70		CN1CCN(C(=O)c2cc(Nc3ncc4cc(C(N)=O)n(C5CCCC5)c4n3)cn2C)CC1	0.1
4	1400	110	2	CC(C)CCn1cc(-c2cc3cnc(Nc4cc(C(=O)N5CCN(C)CC5)n(C)c4)nc3n2C2CCCC2)cn1	0.1
40	1300	130	20	CN1CCN(C(=O)c2cc(Nc3ncc4cc(CO)n(C5CCCC5)c4n3)cn2C)CC1	0.1
18	240	290	38	CN1CCN(C(=O)c2cc(Nc3ncc4ccn(C5CCCC5)c4n3)cn2C)CC1	0.3
4	180		2	CN1CCN(C(=O)c2cc(Nc3ncc4cc(-c5cnn(C)c5)n(C5CCCC5)c4n3)cn2C)CC1	0.03
4	330	110	2	Cc1c(-c2cc3cnc(Nc4cc(C(=O)N5CCN(C)CC5)n(C)c4)nc3n2C2CCCC2)cnn1C	0.03
1000	10000	12300	350	CN1CCN(C(=O)c2cc(Nc3ncc4cc(C(=O)O)n(C5CCCC5)c4n3)cn2C)CC1	10
4	2000	90	2	CN1CCN(C(=O)c2cc(Nc3ncc4cc(-c5cnn(Cc6ccccc6)c5)n(C5CCCC5)c4n3)cn2C)CC1	0.1
30	1100	80	11	CC(O)c1cc2cnc(Nc3cc(C(=O)N4CCN(C)CC4)n(C)c3)nc2n1C1CCCC1 (configuration not stated)	0.1
60	700	210	40	CNCc1cc2cnc(Nc3cc(C(=O)N4CCN(C)CC4)n(C)c3)nc2n1C1CCCC1	0.3
4	6	40	7.5	CN1CCN(C(=O)c2cc(Nc3ncc4cc(C#N)n(C5CCCC5)c4n3)cn2C)CC1	0.065
4	28	60	2	CN1CCN(C(=O)c2cc(Nc3ncc4cc(-c5cnco5)n(C5CCCC5)c4n3)cn2C)CC1	0.03
4	1700	590		CN1CCN(C(=O)c2cc(Nc3ncc4cc(-c5ccnn5C)n(C5CCCC5)c4n3)cn2C)CC1	1
30	3	4	11	CN1CCN(C(=O)c2cc(Nc3ncc4cc(/C=N/O)n(C5CCCC5)c4n3)cn2C)CC1	0.002
5	200	5	2	CN1CCN(C(=O)c2cc(Nc3ncc4cc(-c5cncn5C)n(C5CCCC5)c4n3)cn2C)CC1	0.003
